Results: ChEMBL document CHEMBL1201862, “PubChem BioAssay data set” (2004)
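Where inhibition never reached the appropriate level, the endpoint shown equals the highest concentration tested. Otherwise, values were interpolated linearly from a five-concentration, 48-hour dose response in 96-well plates. GI50: concentration for 50% inhibition of growth.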 The source made the active and inactive calls. Cut-off read from the data, not from the text of the source: active = GI50 up to about 1.1 µM and inactive = higher.

Assays:
Test in all cases: NCI tumour cell line growth inhibition, 48 h
786-0 = test system: 786-0
A498 = test system: A498
A549 = test system: A549
ACHN = test system: ACHN
BT-549 = test system: BT-549
CAKI-1 = test system: CAKI-1
CCRF-CEM = test system: CCRF-CEM
COLO 205 = test system: COLO 205
DU-145 = test system: DU-145
EKVX = test system: EKVX
HCC 2998 = test system: HCC 2998
HCT-116 = test system: HCT-116
HCT-15 = test system: HCT-15
HL-60 = test system: HL-60
HOP-92 = test system: HOP-92
Hs-578T = test system: Hs-578T
IGROV-1 = test system: IGROV-1
K562 = test system: K562
KM12 = test system: KM12
LOX IMVI = test system: LOX IMVI
M14 = test system: M14
MCF7 = test system: MCF7
MDA-MB-231 = test system: MDA-MB-231
MDA-MB-435 = test system: MDA-MB-435
MDA-N = test system: MDA-N
MOLT-4 = test system: MOLT-4
Malme-3M = test system: Malme-3M
NCI-H226 = test system: NCI-H226
NCI-H460 = test system: NCI-H460
NCI-H522 = test system: NCI-H522
NCI/ADR-RES = test system: NCI/ADR-RES
OVCAR-3 = test system: OVCAR-3
OVCAR-4 = test system: OVCAR-4
OVCAR-5 = test system: OVCAR-5
OVCAR-8 = test system: OVCAR-8
PC-3 = test system: PC-3
RPMI-8226 = test system: RPMI-8226
RXF 393 = test system: RXF 393
SF-268 = test system: SF-268
SF-295 = test system: SF-295
SF-539 = test system: SF-539
SK-MEL-28 = test system: SK-MEL-28
SK-MEL-2 = test system: SK-MEL-2
SK-MEL-5 = test system: SK-MEL-5
SN12C = test system: SN12C
SNB-19 = test system: SNB-19
SNB-75 = test system: SNB-75
SR = test system: SR
SW-620 = test system: SW-620
T47D = test system: T47D
TK-10 = test system: TK-10
U-251 = test system: U-251
UACC-257 = test system: UACC-257
UACC-62 = test system: UACC-62
UO-31 = test system: UO-31
HOP-62 = test system: HOP-62
HT-29 = test system: HT-29
NCI-H23 = test system: NCI-H23
SK-OV-3 = test system: SK-OV-3

Measured: GI50

Cc1c(C)c2c(c(N)c1C#N)C(=O)N(NC(=O)c1ccccc1)C2=O
> 100 µM: HCT-15
inactive: 786-0 > 100 µM | A498 > 100 µM | A549 > 100 µM | ACHN > 100 µM | BT-549 > 100 µM | CAKI-1 > 100 µM | CCRF-CEM > 100 µM | COLO 205 > 100 µM | DU-145 > 100 µM | EKVX 76.7 µM | HCC 2998 > 100 µM | HCT-116 > 100 µM | HL-60 > 100 µM | HOP-92 > 100 µM | Hs-578T > 100 µM | IGROV-1 > 100 µM | K562 > 100 µM | KM12 > 100 µM | LOX IMVI > 100 µM | M14 > 100 µM | MCF7 > 100 µM | MDA-MB-231 > 100 µM | MDA-MB-435 > 100 µM | MDA-N > 100 µM | MOLT-4 > 100 µM | Malme-3M > 100 µM | NCI-H226 > 100 µM | NCI-H460 > 100 µM | NCI-H522 > 100 µM | NCI/ADR-RES > 100 µM | OVCAR-3 > 100 µM | OVCAR-4 > 100 µM | OVCAR-5 > 100 µM | OVCAR-8 > 100 µM | PC-3 > 100 µM | RPMI-8226 > 100 µM | RXF 393 > 100 µM | SF-268 > 100 µM | SF-295 > 100 µM | SF-539 > 100 µM | SK-MEL-28 > 100 µM | SK-MEL-2 > 100 µM | SK-MEL-5 > 100 µM | SN12C > 100 µM | SNB-19 > 100 µM | SNB-75 > 100 µM | SR > 100 µM | SW-620 > 100 µM | T47D 24.8 µM | TK-10 > 100 µM | U-251 > 100 µM | UACC-257 > 100 µM | UACC-62 > 100 µM | UO-31 36.1 µM

Cc1ccc(S(=O)(=O)n2cc(C=O)c(-c3cn(S(=O)(=O)c4ccc(C)cc4)cc3-c3cn(S(=O)(=O)c4ccc(C)cc4)cc3C=O)c2)cc1
55.7 µM: HCT-15
inactive: 786-0 35.8 µM | A498 > 100 µM | A549 72.4 µM | BT-549 60.1 µM | CAKI-1 > 100 µM | CCRF-CEM 17.9 µM | COLO 205 75.2 µM | DU-145 69.3 µM | EKVX 16.7 µM | HCC 2998 > 100 µM | HCT-116 28 µM | HL-60 25.4 µM | HOP-62 > 100 µM | HOP-92 45.4 µM | HT-29 36.2 µM | Hs-578T > 100 µM | IGROV-1 53.8 µM | K562 24.3 µM | KM12 50.7 µM | LOX IMVI 21.9 µM | M14 29.6 µM | MCF7 27.4 µM | MDA-MB-231 > 100 µM | MDA-MB-435 44.8 µM | MDA-N 75.2 µM | MOLT-4 12.8 µM | Malme-3M 24.3 µM | NCI-H226 29.6 µM | NCI-H23 23.7 µM | NCI-H460 29.2 µM | NCI-H522 26.9 µM | NCI/ADR-RES > 100 µM | OVCAR-3 78.9 µM | OVCAR-5 85.3 µM | OVCAR-8 37.2 µM | PC-3 27.5 µM | RPMI-8226 8.36 µM | RXF 393 29.5 µM | SF-268 > 100 µM | SF-295 42.9 µM | SF-539 25.9 µM | SK-MEL-2 33.8 µM | SK-MEL-5 41.6 µM | SK-OV-3 > 100 µM | SN12C > 100 µM | SNB-19 50.2 µM | SNB-75 29.6 µM | SR 13.6 µM | SW-620 45.1 µM | T47D 28 µM | TK-10 20.9 µM | U-251 29.6 µM | UACC-257 54.1 µM | UACC-62 48.1 µM | UO-31 52.6 µM
